Results on one molecule are retold here after publication PMC7762786, “The discovery of novel antitrypanosomal 4-phenyl-6-(pyridin-3-yl)pyrimidines” (European Journal of Medicinal Chemistry, 2021).

The target of data set [1] is T1, rhodesain (Trypanosoma brucei rhodesiense, UniProt Q95PM0). As to the kind of experiment: In vitro rhodesain enzyme assay (Cbz-Phe-Arg-AMC substrate). The following applies: compound at 50 μM; Cbz-Phe-Arg-AMC substrate 10, 5 and 1.25 μM; read-out: inhibition of rhodesain enzymatic activity. It is filed as biochemical. As to the method: Enzyme assays with rhodesain were performed as described previously [[36], [37], [38]]. The assay buffer consisted of 50 mM sodium acetate (pH 5.5), 5 mM EDTA, 200 mM NaCl and 0.005% Brij35. The enzyme buffer consisted of 50 mM sodium acetate (pH 5.5), 5 mM EDTA, 200 mM NaCl and 2 mM DTT. The substrate Cbz-Phe-Arg-AMC (Bachem, purchased as HCl salt) was diluted from a 1 mM stock solution to reach concentrations of 10, 5 and 1.25 μM. […] Inhibition against rhodesain was measured using Cbz-Phe-Arg-AMC as the substrate, which releases AMC (7-amino-4-methylcoumarin) after amide bond cleavage by the enzyme. Proteolytic activity of the enzyme was monitored spectrophotometrically by the increase of fluorescence intensity by release of AMC (emission at 460 nm) upon hydrolysis.
T1 sequence (Q95PM0 entry or part of it): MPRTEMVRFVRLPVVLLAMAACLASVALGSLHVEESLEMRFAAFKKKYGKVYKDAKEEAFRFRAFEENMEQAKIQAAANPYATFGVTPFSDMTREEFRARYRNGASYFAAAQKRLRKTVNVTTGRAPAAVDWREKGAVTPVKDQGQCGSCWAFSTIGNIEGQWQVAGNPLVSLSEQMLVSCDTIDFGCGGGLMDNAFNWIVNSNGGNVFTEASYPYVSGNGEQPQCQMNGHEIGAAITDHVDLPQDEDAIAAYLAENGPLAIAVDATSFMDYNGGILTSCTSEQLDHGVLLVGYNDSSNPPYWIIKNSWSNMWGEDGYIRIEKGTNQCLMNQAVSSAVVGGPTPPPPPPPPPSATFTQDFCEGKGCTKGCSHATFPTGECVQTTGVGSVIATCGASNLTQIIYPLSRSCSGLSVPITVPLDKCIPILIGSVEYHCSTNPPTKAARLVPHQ

The target of data set [2] is T1, rhodesain. As to the kind of experiment: STD and WaterLOGSY NMR protein-ligand interaction. Format: binding. The following applies: rhodesain 50 μM, compound 5 mM, 25 °C; corroborated by WaterLOGSY. The text has this:
In order to support the outcome observed from docking studies, protein-ligand interactions were probed via Saturation Transfer Difference (STD) and WaterLOGSY experiments. STD is an NMR technique where the protein is selectively saturated and, if the ligand is binding to the protein in the timescale of the experiment, the saturation gets transferred to the ligand via intermolecular NOE and only then it is possible to observe an NMR signal. WaterLOGSY relies on the detection of the intermolecular NOE between water (which is selectively irradiated) and the ligand. The sign of the NOE depends on the rotational correlation time of the molecule, thus large molecules such as proteins, have an opposite NOE sign than small molecules such as the pyrimidines investigated. If the pyrimidines bind to the protein, their rotational correlation time changes and the sign of the signals in the WaterLOGSY experiment will be opposite than in the absence of a binding protein. […] The WaterLOGSY results, which as expected is generally a more sensitive technique, further corroborate our findings. […]
All NMR studies were performed at 25 °C on a JEOL ECZ-R 600 MHz spectrometer equipped with a ROYAL room temperature probe. […] The spectra were processed and analysed using JEOL Delta software. […]

Data set [3] addresses T2, CYP3A4 (Homo sapiens, UniProt P08684).
T2 construct: purchased Corning; host or cells: baculovirus infected insect cells (BTI-TN-5B1-4)
The experiment in a line: Cytochrome P450 inhibition assay (P450-Glo). It is filed as in vitro ADME. The following applies: 10 μM, result in words. The method, then: (§1) Cytotoxicity was also determined against 786-O and A549 cells.
(§2) Experiments for determining pre-clinical in vitro ADME-Tox activities were performed as described by Moraes et al. and also described in the following sections 4.3.2.1 to 4.3.2.4.
(§3) The luminescence based P450-Glo™ (Promega Corp.) assay was used in 384-well assay format.
(§4) The cytochrome P450 (CYP) panel included microsomal preparations of cytochromes P450 1A2, 2C9, 2C19, 2D6, and 3A4 (Corning) from baculovirus infected insect cells (BTI-TN-5B1−4) which express cytochromes P450 and cytochrome c reductase (and cytochrome b5 for 3A4). Compounds were added (100 nL/well in 1% DMSO v/v) using the Echo 550® Liquid Handler followed by addition of 5 μL/well of CYP450/substrate mixture. Following incubation for 30 min at 37 °C, the reaction was initiated by the addition of 5 μL/well of the NADPH regeneration mixture. By the end of a further 30 min incubation (37 °C), the CYP450 reaction was stopped and the luciferase reaction was initiated by the addition of 10 μL/well of the luciferin detection reagent, followed by an additional 30 min of incubation at 37 °C. The luminescence signal was detected using an Infinite® M1000 PRO plate reader. […] The raw data were normalised relative to the positive and negative controls yielding the % inhibition for each compound.

Data set [4] addresses T3, CYP2C19 (Homo sapiens, UniProt P33261).
T3 construct: purchased Corning; host or cells: baculovirus infected insect cells (BTI-TN-5B1-4)
The experiment in a line: Cytochrome P450 inhibition assay (P450-Glo). Format: in vitro ADME. The following applies: 10 μM, result in words. The method, then:
as §1, §2, §3, §4

The target of data set [5] is T4, CYP2D6 (Homo sapiens, UniProt P10635).
T4 construct: purchased Corning; host or cells: baculovirus infected insect cells (BTI-TN-5B1-4)
T4 sequence (P10635 whole entry): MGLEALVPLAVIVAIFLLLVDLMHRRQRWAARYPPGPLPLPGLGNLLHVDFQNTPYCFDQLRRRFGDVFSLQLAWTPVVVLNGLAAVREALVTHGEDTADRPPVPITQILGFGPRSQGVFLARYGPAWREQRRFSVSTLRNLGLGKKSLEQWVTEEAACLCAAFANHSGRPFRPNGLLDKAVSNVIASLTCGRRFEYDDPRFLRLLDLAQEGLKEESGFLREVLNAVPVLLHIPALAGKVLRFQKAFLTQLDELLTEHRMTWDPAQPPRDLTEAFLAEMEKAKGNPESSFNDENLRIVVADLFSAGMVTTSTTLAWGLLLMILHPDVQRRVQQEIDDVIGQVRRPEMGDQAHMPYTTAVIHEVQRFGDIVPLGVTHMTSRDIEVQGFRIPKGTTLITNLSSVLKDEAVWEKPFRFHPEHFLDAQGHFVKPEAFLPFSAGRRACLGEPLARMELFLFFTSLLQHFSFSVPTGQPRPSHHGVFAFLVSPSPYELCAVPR
The experiment in a line: Cytochrome P450 inhibition assay (P450-Glo). Format: in vitro ADME. The following applies: 10 μM, result in words. The method, then: as §1, §2, §3, §4

Data set [6] addresses T5, CYP2C9 (Homo sapiens, UniProt P11712).
T5 construct: purchased Corning; host or cells: baculovirus infected insect cells (BTI-TN-5B1-4)
As to the kind of experiment: Cytochrome P450 inhibition assay (P450-Glo). Format: in vitro ADME. The following applies: 10 μM, result in words. The method, then:
as §1, §2, §3, §4

In data set [7] the target is T6, CYP1A2 (Homo sapiens, UniProt P05177).
T6 construct: purchased Corning; host or cells: baculovirus infected insect cells (BTI-TN-5B1-4)
T6 sequence (P05177 2-516 limits assumed): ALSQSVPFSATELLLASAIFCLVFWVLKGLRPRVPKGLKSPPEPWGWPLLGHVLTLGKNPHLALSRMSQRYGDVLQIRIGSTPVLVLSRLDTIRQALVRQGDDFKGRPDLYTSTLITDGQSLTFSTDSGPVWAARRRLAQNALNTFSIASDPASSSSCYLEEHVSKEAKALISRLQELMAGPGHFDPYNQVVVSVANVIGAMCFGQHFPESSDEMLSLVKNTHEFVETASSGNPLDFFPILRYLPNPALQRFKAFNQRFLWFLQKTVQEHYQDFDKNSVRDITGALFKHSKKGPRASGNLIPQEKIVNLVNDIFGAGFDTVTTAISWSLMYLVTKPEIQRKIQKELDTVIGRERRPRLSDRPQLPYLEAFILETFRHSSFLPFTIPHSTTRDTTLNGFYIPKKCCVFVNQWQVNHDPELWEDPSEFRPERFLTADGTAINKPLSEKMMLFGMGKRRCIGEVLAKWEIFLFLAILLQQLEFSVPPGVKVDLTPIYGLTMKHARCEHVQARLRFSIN
The experiment in a line: Cytochrome P450 inhibition assay (P450-Glo). The following applies: 10 μM, result in words. Format: in vitro ADME. The method, then: as §1, §2, §3, §4

T2 sequence (P08684 2-503 limits assumed): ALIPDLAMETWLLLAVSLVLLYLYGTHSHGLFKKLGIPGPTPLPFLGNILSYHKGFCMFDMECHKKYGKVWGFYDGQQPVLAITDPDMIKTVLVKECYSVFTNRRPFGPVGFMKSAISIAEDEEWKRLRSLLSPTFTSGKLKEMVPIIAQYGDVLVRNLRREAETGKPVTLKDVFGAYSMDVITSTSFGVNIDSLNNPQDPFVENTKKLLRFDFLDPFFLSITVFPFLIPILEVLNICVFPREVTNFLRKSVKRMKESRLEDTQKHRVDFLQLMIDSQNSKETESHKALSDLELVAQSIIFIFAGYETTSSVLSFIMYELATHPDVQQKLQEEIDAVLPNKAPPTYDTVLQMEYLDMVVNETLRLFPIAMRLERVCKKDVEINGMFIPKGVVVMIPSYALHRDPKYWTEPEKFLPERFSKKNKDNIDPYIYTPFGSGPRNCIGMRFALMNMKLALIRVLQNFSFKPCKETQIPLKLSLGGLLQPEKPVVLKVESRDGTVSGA
T5 sequence (P11712 whole entry): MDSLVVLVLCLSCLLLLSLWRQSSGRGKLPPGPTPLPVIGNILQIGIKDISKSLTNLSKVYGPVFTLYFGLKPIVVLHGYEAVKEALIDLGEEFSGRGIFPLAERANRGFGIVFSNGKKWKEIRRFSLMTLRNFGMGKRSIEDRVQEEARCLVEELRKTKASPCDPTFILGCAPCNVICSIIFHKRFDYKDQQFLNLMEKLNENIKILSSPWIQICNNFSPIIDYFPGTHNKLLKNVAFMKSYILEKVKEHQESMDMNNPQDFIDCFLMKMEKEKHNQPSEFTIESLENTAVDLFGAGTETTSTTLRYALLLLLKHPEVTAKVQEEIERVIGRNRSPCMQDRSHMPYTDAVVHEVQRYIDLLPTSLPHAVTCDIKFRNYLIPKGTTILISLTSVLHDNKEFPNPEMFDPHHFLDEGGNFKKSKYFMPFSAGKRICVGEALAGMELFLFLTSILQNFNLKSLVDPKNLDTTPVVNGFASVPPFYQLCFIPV
T3 sequence (P33261 whole entry): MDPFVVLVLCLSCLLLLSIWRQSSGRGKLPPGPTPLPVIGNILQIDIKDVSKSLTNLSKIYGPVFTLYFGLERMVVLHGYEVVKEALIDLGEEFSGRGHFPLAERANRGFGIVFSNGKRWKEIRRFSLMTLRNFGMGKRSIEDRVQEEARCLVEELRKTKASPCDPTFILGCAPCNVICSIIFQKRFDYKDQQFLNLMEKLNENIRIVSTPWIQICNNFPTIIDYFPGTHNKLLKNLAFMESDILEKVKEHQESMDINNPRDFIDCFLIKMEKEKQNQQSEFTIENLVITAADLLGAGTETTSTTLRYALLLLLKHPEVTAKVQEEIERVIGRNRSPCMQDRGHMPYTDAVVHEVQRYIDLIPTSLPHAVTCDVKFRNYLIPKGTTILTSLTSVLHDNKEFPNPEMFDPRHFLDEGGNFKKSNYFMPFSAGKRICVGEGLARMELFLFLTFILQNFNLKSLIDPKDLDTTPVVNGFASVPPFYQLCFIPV

By inhibition is commonly meant the percentage by which the read-out fell short of the control. Turning to `COc1ccccc1-c1cc(-c2cccnc2)nc(N)n1` [Compound 13, 4-(2-Methoxyphenyl)-6-(pyridin-3-yl)pyrimidin-2-amine], the inhibition at 50 µM in data set [1] was not above 15%. In addition, the “binding to rhodesain by STD NMR” value in data set [2] is on record as “confirming binding to rhodesain”. In data set [3], the CYP3A4 inhibition result is listed as “favourable results”. Further, in data set [4], the CYP2C19 inhibition result is given as “some inhibition”. For the same molecule, the CYP2D6 inhibition result in data set [5] was “favourable results”. Besides, in data set [6], the CYP2C9 inhibition result is “some inhibition”. The CYP1A2 inhibition entry in data set [7] is on record as “inhibitory activity”.
